The values below come from ChEMBL document CHEMBL3243925, “Disteroidyl ethers. 1. Synthesis and oral long-lasting uterotrophic activity of 1,3,5(10)-estratrien-17-yl enol ethers of 3-keto steroids” (1977).

For test [1], the system named is Rattus norvegicus. Briefly: Uterotrophic activity in spayed Wistar rat assessed as autopsies by measuring uterus weight at 0.1 umol, po after 2 weeks (reference value: 15.9 +/- 0.50 mg). It counts as functional.
Test [2] concerns Rattus norvegicus. Description: Uterotrophic activity in spayed Wistar rat assessed as autopsies by measuring uterus weight at 0.1 umol, po after 1 week (reference value: 15.1 +/- 0.51 mg). It counts as functional.

Activity calls are given as the source filed them. The rule behind the calls is not given here.

As to `C#C[C@]1(OC(=O)CCCCCC)CC[C@H]2[C@@H]3CC=C4C=C(O[C@H]5CC[C@H]6[C@@H]7CCc8cc(OC)ccc8[C@H]7CC[C@]56C)CC[C@@H]4[C@H]3CC[C@@]21C`, the Activity amounted to 15.4 mg in the test with Rattus norvegicus [1] and 18.2 mg in the test with Rattus norvegicus [2]. For `C#C[C@]1(OC(C)=O)CC[C@H]2[C@@H]3CC=C4C=C(O[C@H]5CC[C@H]6[C@@H]7CCc8cc(OC(=O)c9ccccc9)ccc8[C@H]7CC[C@]56C)CC[C@@H]4[C@H]3CC[C@@]21C` the same measures were 21.4 mg and 25.6 mg. Consider `C#C[C@]1(OC(C)=O)CC[C@H]2[C@@H]3CC=C4C=C(O[C@H]5CC[C@H]6[C@@H]7CCc8cc(OC9CCCC9)ccc8[C@H]7CC[C@]56C)CC[C@@H]4[C@H]3CC[C@@]21C`, for which, in the test with Rattus norvegicus [2], the Activity was 17.9 mg.

Consider `CCC(=O)O[C@H]1CC[C@H]2[C@@H]3CC[C@H]4CC(O[C@H]5CC[C@H]6[C@@H]7CCc8cc(OC(=O)c9ccccc9)ccc8[C@H]7CC[C@]56C)=CC[C@]4(C)[C@H]3CC[C@]12C`, for which the Activity amounted to 21.3 mg with Rattus norvegicus [1] and 23.3 mg in the test on Rattus norvegicus [2]. Consider `CC(=O)[C@H]1CC[C@H]2[C@@H]3CC=C4C=C(O[C@H]5CC[C@H]6[C@@H]7CCc8cc(OC(=O)c9ccccc9)ccc8[C@H]7CC[C@]56C)CC[C@]4(C)[C@H]3CC[C@]12C`, for which the Activity in the test with Rattus norvegicus [1] turned out to be 20.6 mg; with Rattus norvegicus [2] it was 26.3 mg.

Turning to `C[C@]12CC[C@@H]3c4ccc(OC(=O)c5ccccc5)cc4CC[C@H]3[C@@H]1CC[C@@H]2OC1=CC2=CC[C@@H]3[C@H](CC[C@]4(C)C(=O)CC[C@@H]34)[C@H]2CC1`, the values for the Activity in the test with Rattus norvegicus [1] and with Rattus norvegicus [2] were 43.7 mg and 59.8 mg, respectively.

With `C#C[C@]1(OC(=O)CCCCCC)CC[C@H]2[C@@H]3CC=C4C=C(O[C@H]5CC[C@H]6[C@@H]7CCc8cc(OC(=O)c9ccccc9)ccc8[C@H]7CC[C@]56C)CC[C@@H]4[C@H]3CC[C@@]21C`, the Activity is reported as 24.2 mg in the test on Rattus norvegicus [1] and 35.6 mg in the test with Rattus norvegicus [2].

`CC(=O)O[C@]1(C(C)=O)CC[C@H]2[C@@H]3CC(C)=C4C=C(O[C@H]5CC[C@H]6[C@@H]7CCc8cc(OC(=O)c9ccccc9)ccc8[C@H]7CC[C@]56C)CC[C@]4(C)[C@H]3CC[C@@]21C`: the Activity in the test with Rattus norvegicus [1] was determined as 21.9 mg; in the test on Rattus norvegicus [2], 26.6 mg.

As for `CC(=O)O[C@H]1CC[C@H]2[C@@H]3CC[C@H]4C=C(O[C@H]5CC[C@H]6[C@@H]7CCc8cc(OC(=O)c9ccccc9)ccc8[C@H]7CC[C@]56C)C=C[C@]4(C)[C@H]3CC[C@]12C`, the Activity in the test on Rattus norvegicus [1] amounted to 20.1 mg; in the test on Rattus norvegicus [2] it was 21.3 mg.

Turning to `C#C[C@]1(O)CC[C@H]2[C@@H]3CC=C4C=C(O[C@H]5CC[C@H]6[C@@H]7CCc8cc(O)ccc8[C@H]7CC[C@]56C)CC[C@@H]4[C@H]3CC[C@@]21C`, the Activity came out at 23.3 mg in the test on Rattus norvegicus [1] and 40.5 mg in the test on Rattus norvegicus [2].

For the compound `C[C@]12CC[C@@H]3c4ccc(O)cc4CC[C@H]3[C@@H]1CC[C@@H]2OC1=CC2=CC[C@@H]3[C@H](CC[C@]4(C)C(=O)CC[C@@H]34)[C@H]2CC1`, the Activity with Rattus norvegicus [1] came to 43.6 mg; in the test with Rattus norvegicus [2], 71.7 mg. Take `CC(=O)O[C@@]1(C)CC[C@H]2[C@@H]3CC=C4C=C(O[C@H]5CC[C@H]6[C@@H]7CCc8cc(OC(=O)c9ccccc9)ccc8[C@H]7CC[C@]56C)CC[C@]4(C)[C@H]3CC[C@@]21C`: the Activity came to 21.5 mg in the test on Rattus norvegicus [1] and 26.4 mg in the test on Rattus norvegicus [2]. In the case of `C#C[C@]1(OC(C)=O)CC[C@H]2[C@@H]3CC=C4C=C(O[C@H]5CC[C@H]6[C@@H]7CC(=O)c8cc(OC(=O)c9ccccc9)ccc8[C@H]7CC[C@]56C)CC[C@@H]4[C@H]3CC[C@@]21C`, the result with Rattus norvegicus [1] and in the test with Rattus norvegicus [2] was inactive.

For `C[C@]12CC[C@@H]3c4ccc(OC(=O)CCC(=O)O)cc4CC[C@H]3[C@@H]1CC[C@@H]2OC1=CC2=CC[C@@H]3[C@H](CC[C@]4(C)C(=O)CC[C@@H]34)[C@H]2CC1`, the Activity in the test with Rattus norvegicus [1] is listed as 36.8 mg; in the test with Rattus norvegicus [2], 60.7 mg. With `C#C[C@]1(OC(C)=O)CC[C@H]2[C@@H]3CC=C4C=C(O[C@H]5CC[C@H]6[C@@H]7CCc8cc(OC(=O)CCC)ccc8[C@H]7CC[C@]56C)CC[C@@H]4[C@H]3CC[C@@]21C`, the Activity was 18.3 mg in the test on Rattus norvegicus [1] and 26.5 mg in the test with Rattus norvegicus [2]. The corresponding values for `C[C@]12CC[C@H]3[C@@H](CC=C4C=C(O[C@H]5CC[C@H]6[C@@H]7CCc8cc(OC9CCCC9)ccc8[C@H]7CC[C@]56C)CC[C@@H]43)[C@@H]1CC[C@@H]2OC(=O)CCC(=O)O` are 31.8 mg and 28.9 mg. For `C[C@]12CC[C@@H]3c4ccc(O)cc4CC[C@H]3[C@@H]1CC[C@@H]2OC1=CC2=CC[C@@H]3[C@H](CC[C@]4(C)C(=O)CC[C@@H]34)[C@@]2(C)CC1` the same measures were 38.9 mg and 56.9 mg. For `CCC(=O)O[C@H]1CC[C@H]2[C@@H]3CC[C@H]4CC(O[C@H]5CC[C@H]6[C@@H]7CCc8cc(OC(=O)c9ccccc9)ccc8[C@H]7CC[C@]56C)CC[C@]4(C)[C@H]3CC[C@]12C` (stereo not given in full) the same measures were “inactive” and “inactive”.

`C#C[C@]1(O)CC[C@H]2[C@@H]3CCc4cc(OC5CCCC5)ccc4[C@H]3CC[C@@]21C` [QUINESTROL]: the Activity turned out to be 29 mg with Rattus norvegicus [1] and 39 mg in the test on Rattus norvegicus [2]. On to `C[C@]12CC[C@@H]3c4ccc(OC(=O)c5ccccc5)cc4CC[C@H]3[C@@H]1CC[C@@H]2OC1=CC2=CC[C@@H]3[C@H](CC[C@]4(C)C(=O)CC[C@@H]34)[C@@]2(C)CC1`, for which the Activity turned out to be 31.6 mg in the test on Rattus norvegicus [1] and 53 mg in the test with Rattus norvegicus [2]. With `C[C@]12CC[C@@H]3c4ccc(O)cc4CC[C@H]3[C@@H]1CC[C@@H]2OC1=CC2=CC[C@@H]3[C@H](CC[C@@]4(C)[C@H]3CC[C@]4(C)O)[C@@]2(C)CC1`, the Activity in the test with Rattus norvegicus [1] amounted to 33.5 mg; in the test on Rattus norvegicus [2] it was 48.1 mg. With `C#C[C@]1(O)CC[C@H]2[C@@H]3CCc4cc(O)ccc4[C@H]3CC[C@@]21C` [ETHINYL ESTRADIOL], the Activity in the test on Rattus norvegicus [1] was found to be 20.5 mg; with Rattus norvegicus [2], 22.5 mg.

Regarding `CCC(=O)O[C@H]1CC[C@H]2[C@@H]3CC=C4C=C(O[C@H]5CC[C@H]6[C@@H]7CCc8cc(OC(=O)c9ccccc9)ccc8[C@H]7CC[C@]56C)CC[C@]4(C)[C@H]3CC[C@]12C`, the Activity stood at 31 mg with Rattus norvegicus [1] and 49.4 mg with Rattus norvegicus [2]. For `C#C[C@]1(OC(=O)CCCCCC)CC[C@H]2[C@@H]3CC=C4C=C(O[C@H]5CC[C@H]6[C@@H]7CCc8cc(OC(C)=O)ccc8[C@H]7CC[C@]56C)CC[C@@H]4[C@H]3CC[C@@]21C` the same measures were 28.7 mg and 31.7 mg. Take `CCC(=O)O[C@H]1CC[C@H]2[C@@H]3CC[C@@H]4C=C(O[C@H]5CC[C@H]6[C@@H]7CCc8cc(OC(=O)c9ccccc9)ccc8[C@H]7CC[C@]56C)CC[C@]4(C)[C@H]3CC[C@]12C`: the Activity in the test on Rattus norvegicus [1] worked out at 19.9 mg; in the test with Rattus norvegicus [2], 21.2 mg. The corresponding values for `C[C@]12CC[C@@H]3c4ccc(OC5CCCC5)cc4CC[C@H]3[C@@H]1CC[C@@H]2OC1=CC2=CC[C@@H]3[C@H](CC[C@]4(C)[C@@H](O)CC[C@@H]34)[C@H]2CC1` are 27.1 mg and 35.8 mg. `C#C[C@]1(OC(=O)CCCCCC)CC[C@H]2[C@@H]3CC=C4C=C(O[C@H]5CC[C@H]6[C@@H]7CCc8cc(O)ccc8[C@H]7CC[C@]56C)CC[C@@H]4[C@H]3CC[C@@]21C`: the Activity with Rattus norvegicus [1] was 22.1 mg; with Rattus norvegicus [2], 33.8 mg. In the case of `C#C[C@]1(OC(C)=O)CC[C@H]2[C@@H]3CC=C4C=C(O[C@H]5CC[C@H]6[C@@H]7CCc8cc(OC(C)OCC)ccc8[C@H]7CC[C@]56C)CC[C@@H]4[C@H]3CC[C@@]21C` (stereo not given in full), the figures for the Activity in the test with Rattus norvegicus [1] and in the test with Rattus norvegicus [2] were 19.3 mg and 30.3 mg, respectively. The corresponding values for `CC(=O)O[C@H]1CC[C@H]2[C@@H]3CC=C4C=C(O[C@H]5CC[C@H]6[C@@H]7CCc8cc(OC(=O)c9ccccc9)ccc8[C@H]7CC[C@]56C)CC[C@@H]4[C@H]3CC[C@]12C` are 31.6 mg and 48 mg. The corresponding values for `C#C[C@]1(O)CC[C@H]2[C@@H]3CC=C4C=C(O[C@H]5CC[C@H]6[C@@H]7CCc8cc(OC(C)=O)ccc8[C@H]7CC[C@]56C)CC[C@@H]4[C@H]3CC[C@@]21C` are 32.7 mg and 39.2 mg. For the compound `C#C[C@@]1(O)CC[C@H]2[C@@H]3CC=C4C=C(O[C@H]5CC[C@H]6[C@@H]7CCc8cc(O)ccc8[C@H]7CC[C@]56C)CC[C@@H]4[C@H]3CC[C@@]21C`, the result in the test with Rattus norvegicus [1] and in the test with Rattus norvegicus [2] was inactive. Regarding `C#C[C@]1(OC(C)=O)CC[C@H]2[C@@H]3CC=C4C=C(O[C@H]5CC[C@H]6[C@@H]7CCc8cc(OC(=O)CCCCCC)ccc8[C@H]7CC[C@]56C)CC[C@@H]4[C@H]3CC[C@@]21C`, the Activity in the test on Rattus norvegicus [1] is 18.9 mg; in the test on Rattus norvegicus [2], 29.5 mg. The corresponding values for `C[C@]12CCC(O[C@H]3CC[C@H]4[C@@H]5CCc6cc(O)ccc6[C@H]5CC[C@]34C)C[C@H]1CC[C@@H]1[C@@H]2CC[C@]2(C)[C@@H](O)CC[C@@H]12` (stereo not given in full) are “inactive” and “inactive”.
